A short description of series [1]: Regeneration of thymol from thymol-salts in 0.1 N HCl. It is filed as physicochemical. Conditions: 0.1N HCl solution (pH = 1), 30 min, heptane extraction. Here is the method: Experimental procedure for regeneration studies: Regeneration studies were performed for 2-isopropyl-5-methylphenolate-salts in the 0.1 N HCl solution (1 pH) followed by extracting free thymol with heptane. The appropriate amount of the corresponding thymol-salt (Table 12) was brought into the 20 mL glass vial. To this, 10 mL of 0.1 N was added. The resultant mixture was kept in a shaker for 30 min. After 30 min of acid treatment, 10 mL of heptane was added to the reaction mixture. The collected organic layer was separated from the water layer and carefully dried using rotavapor followed by drying under a temperature-controlled hot oven at 35° C. for 12 h.

Series [2] can be described thus: Oxidation stability (air bubbled through and sun light, HPLC). It is filed as physicochemical. The conditions noted are these: exposed to air bubbled through and sun light for 24 hours. As for the experimental part: A solution of CBD in ethanol was exposed to air bubbled through and sun light. […] When the CBD metal complexes were exposed to air bubbled through oxidation and sun light for 24 hours, no change in CBD content is found, as determined by HPLC.

The nature of series [3]: HPLC analysis of regenerated CBD from CBD-Choline (1:1) at pH 1.0. The format is physicochemical. Conditions: HCl solution pH = 1.0, 30 min, chloroform extraction.
A short description of series [4]: Pharmacokinetics of CBD after IV administration, freely moving rats. It is filed as in vivo. As for the experimental part:
(§1) And dispersed in water to form a nano dispersion of about 30 nanometer. This dispersion was administered to rats by either IV or orally.
For IV administration: Each molecule was dissolved (2% w/w) in pro-nano lipospheres (PNL) formulation (Table 3). Double-distilled water (DDW) was added to a final CBD concentration of 0.2% w/w in the nano-suspension.
Pharmacokinetics (PK) in rats of Cannabidiol (CBD)-choline (Ch) salt following IV and oral administration: Pharmacokinetic study was performed using the freely moving rats model. For intravenously administration a dosage of 1 mg/kg was given (corrections for the salts are in Tables 4 and 5). Two groups were assigned randomly to be administered with either CBD (n=5) or Ch-CBD (n=4). Systemic blood samples (0.35 mL) were taken at 5-min pre-dose and at 5, 15 30 minutes and 1, 1.5, 2, 4, 6, and 8 hr. post dose.
(§2) The oral formulation was administered to the animals by oral gavage with a dosage of 15 mg/kg (corrections for the salts are in Tables 4 and 5). Two groups were assigned randomly to be administered with either CBD (n=5) or Ch-CBD (n=3). Systemic blood samples (0.35 mL) were taken at 5-min pre-dose and at 0.33, 0.66, 1, 1.5, 2, 4, 6, 8 and 10 hr. post dose. To prevent dehydration, equal volumes of physiological solution were administered following each withdrawal of blood sample. Plasma was separated by centrifugation (4000 rpm, 10 min) and stored at −20° C. pending analysis. Plasma aliquots of 150 μL were spiked with 10 μL of internal standard cannabigerol (CBG; 1 μg/mL). ACN (200 μL) was added to each test tube (tubes A) and vortex-mixed for 1 min. The extraction of CBD and CBG was performed by N-hexane (3 mL) that was added to each test tube (tubes A), followed by 1 min. vortex-mixing. After centrifugation at 4000 rpm for 10 min, the n-hexane organic layer was transferred to fresh glass test tubes (tubes B) and evaporated to dryness (Vacuum Evaporation System, Labconco, Kansas City, MO). Then, tubes B were reconstituted in 80 μL of ACN: water (80:20). The resulting solution (80 μl) was injected into the HPLC-MS system. Column used: XTerra MS C18 Column 3.5 μm 2.1×100 mm column (Waters®, Milford, MA). Mobile phase: an isocratic mobile phase of 20:80 (v/v) 2 mM ammonium acetate/acetonitrile. Diluent: 20:80 (v/v) water/acetonitrile. Flow rate: 0.2 mL/min. Column temperature: 35° C.±5° C. Sample Temperature: 20° C.±5° C. The detection masses (m/z): CBG—312.2 and CBD-313.2, with negative electrospray.
(§3) The amounts found in the plasma for the salts were adjusted with the 0.17 correction factor mentioned in Table 6, to resemble dosage of 1 mg/kg for IV administration and 15 mg/kg for oral administration.

The nature of series [5]: Water solubility of CBD metal complexes. It is filed as physicochemical. As for the experimental part:
CBD metal complexes were tested for water solubility (Table 1).

Series [6] is described as follows: Pharmacokinetics of CBD after oral administration, freely moving rats. It is filed as in vivo. As for the experimental part: as §1
For oral administration: Each molecule was dissolved (5% w/w) in pro-nano lipospheres (PNL) formulation (Table 2). Double-distilled water (DDW) was added to a final CBD concentration of 0.5% w/w in the nano-suspension.
as §2, §3

Series [7] is described as follows: Reversibility of CBD salts to CBD on acidification. The conditions noted are these: dilute HCl, pH 3; 1H NMR. The format is physicochemical. As for the experimental part: 1M HCl solution was added dropwise to aqueous solution of CBD-Na until pH of 3 was achieved. […] The ease of reversibility is paramount to the success of this work, as original compounds may be easily reconstituted by a simple chemical process.
For all salts, adding acidic solution such as HCl, convert back the native CBD.

For series [8] the following is noted: octanol/water.
The conditions of series [9]: NMR.
For series [10] the following is noted: PO 12 mg/kg semaglutide; for T0.5 of semaglutide: n = 3. Here is the method: All compounds are powders and each material ratio is by mass.
Animals are anesthetized for the period of surgery. An indwelling cannula is placed in the right jugular vein of each animal for systemic blood sampling. The cannula is tunnelled beneath the skin and exteriorized at the dorsal part of the neck. After completion of the surgical procedure, the animals are transferred to individual cages to recover overnight (12-18 h). During said recovery period, food, but not water, is deprived if an oral absorption experiment is conducted. Throughout the experiments, free access to food is available 4 h post oral administration.
Animals are randomly assigned to the different experimental groups. […] Systemic blood samples (0.36 ml) are obtained by intravenous cannula, placed in the jugular vein. In the case of oral administration, samples are taken at 5 minutes pre-dose and at different time points post dose, according to the pharmacokinetic profile (blood will be drawn no more than 10% of rat blood volume). To prevent dehydration, equal volumes of physiological solution are administered to the rats following each blood sampling. Plasma is separated by centrifugation (4000 rpm, 7 minutes, 4 °C) and stored at −20° C. pending analysis. Plasma samples were analyzed by a developed LC-MS method for Semaglutide.
PK parameters were extracted from the data in a semi-logarithmic scale. […] It is further important to mention that the formulations were prepared by mass ratios.
AUC0-∞^# was calculated for infinity by using the terminal slope.

Series [11] concerns mold. Kind of series: Hay bale packed in coated packaging. Conditions: after 2 weeks; control bale became moldy. The text has this:
The copper and zinc-thymol salts were incorporated in polystyrene foam, in a hydrogel during their manufacturing and in coating material of potato seeds and hay packaging material. Moreover, the thymol copper was incorporated in polyethylene sheets during melt extrusion. The salts were incorporated in these formulations while thymol could not be incorporated due to its evaporation rate and low melting point. Thymol was constantly released to air over a period of 3 weeks while protecting the hay from microbial contamination.
In a typical experiment, fresh hay was packed with thymol coated and copper-thymol salt coated packaging. After 2 weeks, the control bale became moldy.

The subject of series [12] is various viruses. Conditions: plants in polystyrene trays containing the salt; blank trays heavily infected.
Description: These trays were used for planting tomato plants contaminated with various viruses.

Values after ≈ are worked out from the molar mass of the structure shown. Counter-ions that a name gives are not always drawn.

The text below walks through data of patent US12606536B2, “Bioactive phenolate ionic complexes” (priority 2020, dated 2026).

Regarding “2Na(2-isopropyl-5-methylphenolate)4Zn [Thymol salt 2Na4Zn]”, the “% of thymol regenerated” value in series [1] is reported as 74%.

`C=C(C)[C@@H]1CCC(C)=C[C@H]1c1c(O)cc(CCCCC)cc1O` [CBD, cannabidiol]: the “Change in CBD content” value in series [2] is given as “decrease in CBD content”. Moreover, the “CBD regenerat. (%)” value in series [3] came out at 100.00%. Also, the T0.5 was 1.45 h in series [4] (IV 1 mg/kg in PNL, n = 5) and 1.05 ± 0.46 h in series [6] (PO 15 mg/kg in PNL, n = 5). The compound also showed a clearance in series [4] (rat, plasma, IV 1 mg/kg in PNL, n = 5) of 56.3 mL/min/kg. In addition, the Vd in series [4] (rat, plasma, IV 1 mg/kg in PNL, n = 5, read-out: Volume of distribution) is 7.02 L/kg. In addition, the AUC(0-inf) in series [4] (rat, CBD in plasma, IV 1 mg/kg in PNL formulation suspended (X10) in water, until 8 hours, n = 5) was 300 ng·h/mL; in series [6] (rat, plasma, PO 15 mg/kg in PNL, calculated for infinity by the terminal slope, n = 5), 846 ± 321 ng·h/mL. The same compound returned a solubility in series [5] (water) of 12.6 µg/mL (≈ 40.1 µM). The bioavailability in [6] (rat, plasma, PO 15 mg/kg in PNL, calculated using data of CBD in PNL by IV administration, read-out: Fabs (%) (Absolute bioavailability)) was 18.8 ± 7.1%. This compound displayed a Cmax in series [6] (rat, plasma, PO 15 mg/kg in PNL, n = 5) of 200 ± 79.5 ng/mL. For the same compound, in series [6] (rat, CBD in plasma, PO 15 mg/kg in PNL formulation suspended (X10) in water, until 10 hours, n = 5, read-out: AUC0-10), the AUC(0-t) came to 841 ± 319 ng·h/mL.

In the case of `C=C(C)C1CCC(C)=CC1c1c(O)cc(CCCCC)cc1O` (stereo not shown) [CBD-Choline (1:1) salt], the “CBD regenerat. (%)” value is on record as 67.01% in series [3] and “about 67.0%” in series [3] (listed as CBD-Choline (1:1)).

With `C=C(C)C1CCC(C)=CC1c1c([O-])cc(CCCCC)cc1[O-].C[N+](C)(C)CCO.C[N+](C)(C)CCO` (stereo not shown) [CBD-Choline], the “Conversion back to CBD on acidification” value in series [7] is recorded as “successfully regenerated”. Also, the “Log P” value in series [8] stood at 1.71. The T0.5 in [4] (IV, MS correction (0.17), PNL, n = 4) amounted to 0.98 h; in [4] (IV, MW adjustment (0.6), PNL, n = 4), 1.07 h; in series [6] (PO, MS correction (0.17), n = 3), 1.37 ± 0.47 h; in series [6] (PO, MW adjustment (0.6), n = 3) it was 1.37 ± 0.47 h. In series [4] (rats, IV), the “Blood levels after IV compared with CBD” value is “comparable”.

In the case of `C=C(C)C1CCC(C)=CC1c1c([O-])cc(CCCCC)cc1[O-].[K+].[K+]` (stereo not shown) [CBD-K], the Solubility in water in series [5] was 2000 µg/mL.

Consider `C=C(C)C1CCC(C)=CC1c1c([O-])cc(CCCCC)cc1[O-].[Na+].[Na+]` (stereo not shown) [CBD-Na], for which the “Conversion back to CBD on acidification” value in series [7] is given as “confirmed by ^1H NMR to be CBD”. The Solubility in water in [5] came to 10000 µg/mL.

As for `O=C([O-])CCCCCCCNC(=O)c1ccccc1O.[Na+]` [SNAC, Salcaprozate Sodium], in series [9], the “Behaviour on reducing the pH to acidic pH (1.2)” value is “precipitated”.

Take `C[N+](C)(C)CCO.O=C([O-])CCCCCCCNC(=O)c1ccccc1[O-].[Na+]` [SNAC-CH]: in [10], the T0.5 of semaglutide came to 2.62 ± 0.35 h.

With `O=C([O-])CCCCCCCNC(=O)c1ccccc1O.[Na+]` [SNAC-Na], the “Semaglutide absorption compared with the SNAC formulation” value in [10] was “didn't contribute to the semaglutide absorption”.

On to `O=C([O-])CCCCCCCNC(=O)c1ccccc1[O-].[Na+].[Na+]` [SNAC-Na], for which, in series [10], the T0.5 of semaglutide stood at 2.26 ± 1.07 h.

As for `Cc1ccc(C(C)C)c(O)c1` [Thymol salt Copper (II), copper(II) 2-isopropyl-5-methylphenolate], in [1] (listed as Copper (II)), the “% of thymol regenerated” value is 72%. Besides, the “Mold on hay bale” value in series [11] is “has not shown any mold”.

On to `Cc1ccc(C(C)C)c(O)c1` [Thymol salt Ferrous (II), ferrous (II) 2-isopropyl-5-methylphenolate], for which the “% of thymol regenerated” value in series [1] was found to be 97%.

Regarding `Cc1ccc(C(C)C)c([O-])c1.[Li+]` [Thymol salt Lithium, lithium 2-isopropyl-5-methylphenolate], the “% of thymol regenerated” value in series [1] is on record as 63%.

On to `Cc1ccc(C(C)C)c([O-])c1.[K+]` [Thymol salt Potassium, potassium 2-isopropyl-5-methylphenolate], for which the “% of thymol regenerated” value in series [1] is on record as 57%.

For `Cc1ccc(C(C)C)c(O)c1` [Thymol salt Silver, silver 2-isopropyl-5-methylphenolate], in series [1] (listed as Silver), the “% of thymol regenerated” value is listed as 57%.

As for `Cc1ccc(C(C)C)c([O-])c1.[Na+]` [Thymol salt Sodium, sodium 2-isopropyl-5-methylphenolate], the “% of thymol regenerated” value in series [1] came to 68%.

Take `CCCC[N+](CCCC)(CCCC)CCCC` [Thymol salt Tetrabutylammonium, tetrabutylammonium 2-isopropyl-5-methylphenolate]: the “% of thymol regenerated” value in series [1] was determined as 94%.

Take `Cc1ccc(C(C)C)c(O)c1` [Thymol salt Zinc (II), zinc(II) 2-isopropyl-5-methylphenolate]: the “% of thymol regenerated” value in series [1] (listed as Zinc (II)) worked out at 59%.

In the case of `O=C([O-])c1ccccc1.O=C([O-])c1ccccc1.[Cu+2]` [copper benzoate], the “Infection of tomato plants” value in [12] was “did not demonstrate any infection”.

With “manganese (II) 2-isopropyl-5-methylphenolate [Thymol salt Manganese(II)]”, the “% of thymol regenerated” value in series [1] stood at 77%.
